The source of these data is ChEMBL document CHEMBL1201862, “PubChem BioAssay data set” (2004).

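Grown in 96-well plates, cells were treated for 48 hours with each compound at five concentrations. Insufficient inhibition: endpoint recorded as highest concentration tested. Here, GI50 denotes the concentration required for 50% inhibition of growth.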 Calls of active or inactive are those of the source. Rule as the data show it: active = GI50 up to about 1.1 µM and inactive = higher.

Test systems include A498; EKVX; HCT-116; HCT-15; HOP-62; Hs-578T; IGROV-1; M14; Malme-3M; NCI-H23; NCI-H460; OVCAR-8; SF-295; SK-MEL-28; SK-MEL-2; SK-MEL-5; SK-OV-3; SNB-19.
Holding throughout (assay): NCI tumour cell line growth inhibition, 48 h

As to `CCOC(=O)c1c(N/C(S)=N/c2ccccc2)sc2c1CCOC2`, the GI50 was 37 µM (inactive) in the test on A498; 79.6 µM (inactive) in the test with EKVX; 37.2 µM (inactive) in the test with HCT-116; 46.7 µM in the test with HCT-15; 92 µM (inactive) in the test on HOP-62; 67.3 µM (inactive) in the test on Hs-578T. The GI50 in the test on IGROV-1 is 27.5 µM (inactive); with M14, 39.1 µM (inactive); in the test on Malme-3M it was 52.1 µM (inactive); with NCI-H23, 26.4 µM (inactive); in the test with NCI-H460, 40.2 µM (inactive); in the test on OVCAR-8, > 100 µM (inactive). In addition, the GI50 in the test with SF-295 is 46.8 µM (inactive); in the test with SK-MEL-28, 27.5 µM (inactive); with SK-MEL-2, 74.6 µM (inactive); in the test with SK-MEL-5, 53.1 µM (inactive); in the test with SK-OV-3, 85.9 µM (inactive); with SNB-19, > 100 µM (inactive).

On to `Nc1ncnc2c1ncn2C1OC(C(=O)OCCO)C(O)C1O` (configuration not stated), for which the GI50 in the test on A498 is > 100 µM (inactive); with EKVX, > 100 µM (inactive); in the test on HCT-116 it was > 100 µM (inactive); in the test with HCT-15 it was greater than 100 µM; in the test with HOP-62, > 100 µM (inactive); in the test with Hs-578T it was > 100 µM (inactive). The GI50 in the test on IGROV-1, in the test on M14, in the test with Malme-3M, in the test with NCI-H23, in the test with NCI-H460 and in the test with OVCAR-8 was > 100 µM (inactive) in each case. Besides, the GI50 with SF-295, in the test with SK-MEL-28, with SK-MEL-2, in the test with SK-MEL-5, with SK-OV-3 and with SNB-19 was > 100 µM (inactive) each time.

`CN(C)c1nc2nonc2nc1Nc1ccccc1`: the GI50 in the test on A498 is > 100 µM (inactive); in the test with EKVX, > 100 µM (inactive); in the test with HCT-116 it was > 100 µM (inactive); in the test with HCT-15, greater than 100 µM; in the test with HOP-62, > 100 µM (inactive); with Hs-578T, > 100 µM (inactive). The GI50 in the test on IGROV-1, with M14, with Malme-3M, in the test with NCI-H23, in the test with NCI-H460 and in the test with OVCAR-8 was > 100 µM (inactive) each time. Besides, the GI50 with SF-295, with SK-MEL-28, in the test with SK-MEL-2, in the test on SK-MEL-5, with SK-OV-3 and in the test with SNB-19 was > 100 µM (inactive) each time.

Regarding `Cc1ccc(OCC2OC(n3cnc4nc(N)nc(Cl)c43)CC2Oc2ccc(C)cc2)cc1` (configuration not stated), the GI50 with A498 was 28.2 µM (inactive); in the test on EKVX, 24.5 µM (inactive); with HCT-116 it was 22 µM (inactive); with HCT-15, 14.9 µM; in the test on HOP-62, 22.3 µM (inactive); in the test on Hs-578T, 15.4 µM (inactive). For the same molecule, the GI50 in the test with IGROV-1 is 18.5 µM (inactive); in the test on M14, 15.8 µM (inactive); in the test on Malme-3M it was 24.3 µM (inactive); in the test on NCI-H23, 15.6 µM (inactive); in the test on NCI-H460 it was 21.4 µM (inactive); with OVCAR-8, 15.7 µM (inactive). Also, the GI50 with SF-295 is 27.6 µM (inactive); in the test with SK-MEL-28, 36 µM (inactive); in the test with SK-MEL-2, 17.7 µM (inactive); in the test with SK-MEL-5, 19.7 µM (inactive); with SK-OV-3, 33.9 µM (inactive); in the test on SNB-19 it was 11.8 µM (inactive).
